Source: article PMC9618446 (Biomedicine & Pharmacotherapy, 2022)

What was measured:
in vitro [1] = details: African green monkey
[2] = tested on: SARS-CoV-2 (isolate Wuhan-Hu-1); assay: microbe, parasite or virus in culture; format: cell-based; details: for IC50: Severe acute respiratory syndrome coronavirus 2, Vero C1008, 24 h, read-out: IC50 (half-maximal inhibitory concentration), anti-SARS-CoV-2 activity
in vitro [3] = details: human
IL-1β = format: cell-based, human
CXCL-10 = format: cell-based, human
SARS-CoV-2 S PsV = assay: microbe, parasite or virus in culture; format: cell-based
[4] = tested on: SARS-CoV-2 S protein-mediated cell-cell fusion; format: cell-based
papain-like protease = details: cited from earlier work
IL-6 = format: cell-based, human
3 C-like protease = details: cited from earlier work

| Structure (SMILES) | CC50 (in vitro [1]) | SI: selectivity index as CC50/IC50 [2] | IC50 [2] | CC50 (in vitro [3]) | release of IL-1β from THP-1 cells (IL-1β) | release of CXCL-10 from THP-1 cells (CXCL-10) | further results |
| --- | --- | --- | --- | --- | --- | --- | --- |
| COc1ccc([C@@H]2CC(=O)c3c(O)cc(O)cc3O2)cc1O [HE, Hesperetin] | > 200 µM | > 4.00 | 50 ± 0.66 µM | > 400 µM | – | – | – |
| O=C(/C=C/c1ccc(O)cc1)c1ccc(O)cc1O [IS, Isoliquiritigenin] | – | – | – | – | inhibited the release of both CXCL-10 and IL-1β | inhibited the release of both CXCL-10 and IL-1β | – |
| O=c1cc(-c2ccc(O)c(O)c2)oc2cc(O)cc(O)c12 [LU, Luteolin] | – | – | – | – | – | inhibited the release of CXCL-10 | – |
| O=C1C[C@@H](c2ccc(O)cc2)Oc2cc(O)cc(O)c21 [NA, Naringenin] | – | – | – | – | – | inhibited the release of CXCL-10 | – |
| COc1c(O)cc2oc(-c3ccccc3)cc(=O)c2c1O [OA, Oroxylin A] | > 200 µM | > 6.37 | 31.39 ± 0.07 µM | > 400 µM | inhibited the release of both CXCL-10 and IL-1β | inhibited the release of both CXCL-10 and IL-1β | IC50 (SARS-CoV-2 S PsV; Severe acute respiratory syndrome coronavirus 2, read-out: IC50 against SARS-CoV-2 S PsV infection): 15 ± 1.46 µM; SARS-CoV-2 S protein-mediated cell-cell fusion (syncytium formation) [4]: significantly inhibited |
| Oc1ccc(/C=C/c2cc(O)cc(O)c2)cc1 [RE, Resveratrol] | – | – | – | – | inhibited the release of IL-1β | – | – |
| O=C(O)[C@H]1O[C@@H](Oc2cc3oc(-c4ccc(O)cc4)cc(=O)c3c(O)c2O)[C@H](O)[C@@H](O)[C@@H]1O [SC, Scutellarin] | > 200 µM | > 8.90 | 22.47 ± 0.19 µM | > 400 µM | – | – | inhibitory activity against entry of SARS-CoV-2 S PsV (in words) (SARS-CoV-2 S PsV): inhibits neither the entry of SARS-CoV-2 S PsV; inhibition of papain-like protease activity (papain-like protease): nor the activity of 3 C-like protease and papain-like protease; release of IL-6 from THP-1 cells (IL-6): except SC; inhibition of 3 C-like protease activity (3 C-like protease): nor the activity of 3 C-like protease and papain-like protease |
| COc1c(O)cc2occ(-c3ccc(O)cc3)c(=O)c2c1O [TE, Tectorigenin] | – | – | – | – | inhibited the release of both CXCL-10 and IL-1β | inhibited the release of both CXCL-10 and IL-1β | inhibition of SARS-CoV-2 infection [2]: approximately 48.31% |
